Test results published in PMC10137255, “Disturbing the Redox Balance Using Buthionine Sulfoximine Radiosensitized Somatostatin Receptor-2 Expressing Pre-Clinical Models to Peptide Receptor Radionuclide Therapy with ^177Lu-DOTATATE” (Cancers, 2023).
Where “and” joins values, the source holds several entries; their conditions need not be identical. Identical values can stand only once. One block for each molecule: values may come before it.

Legend:
[1] = tested on: liver; assay: H&E staining of liver; conditions: mouse, in vivo
Protocol: (§1) Liver and kidneys were harvested, fixed in PAXgene Tissue FIX (Qiagen, Hilden, Germany) for 1 day at room temperature and kept at 4 °C in PAXgene Tissue STABILIZER (Qiagen) until they were embedded in paraffin for histological studies. Staining was carried out on 4 μm paraffin-embedded tissue sections subsequently deparaffinized in xylene and rehydrated in decreasing alcohol concentrations. Slides were incubated in Mayer’s hematoxylin for 6 min and subsequently in eosin for 3 min. Slides were mounted using Tissue-Tek Prisma (Sakura, Alphen aan den Rijn, The Netherlands). Digital scans of slides were acquired with Nanozoomer NDP (Hamamatsu Photonics, Shizuoka, Japan) and analysed by an experienced clinical pathologist.

[2] = tested on: bone marrow; assay: Bone marrow apoptosis assessment (Annexin V/7-AAD); assay type: in vivo, mouse; conditions: mice sacrificed 29 to 38 days post-177Lu-DOTATATE injection; Annexin V/7-AAD flow cytometry; mean ± SEM; 3 to 4 mice per group
Protocol: At the time of sacrifice, bone marrow (BM) was harvested from both femurs (containing hematopoietically active marrow) of the animals. Femurs were excised from each mouse, and then the attached muscle was trimmed from the periosteal surface and the bone was opened at the distal end. BM was isolated using the cytocentrifuge method. In brief, the femur was placed in a 0.5 mL Eppendorf tube pre-punctured with a needle at the base of the tube to form an opening. The 0.5 mL tube was nested within a 1.5 mL Eppendorf tube, and both were centrifuged at 10,000 rpm for 15 s to form a BM pellet at the bottom of the 1.5 mL Eppendorf tube yet to retain the femur within the 0.5 mL tube. • Bone marrow smears and cytological assessment. BM samples were assayed for apoptosis. A 10 min incubation step at 37 °C with NH4Cl was performed for red blood cell lysis. Samples were then centrifuged for 5 min, and the supernatant containing lysed red blood cells was discarded. Samples were then incubated with Annexin-V Binding Buffer (ThermoFisher, Waltham, MA, USA), Annexin V (BD Biosciences, Franklin Lakes, NJ, USA) and 7-AAD (BD Biosciences, Franklin Lakes, NJ, USA) for 15 min at room temperature. Annexin Buffer was added to samples that were subsequently analysed using a MACSQuant Analyzer 10 Flow Cytometer (Miltenyi Biotec, Bergisch Gladbach, Germany).

[3] = tested on: bone marrow; assay: Bone marrow smears and cytological assessment; assay type: in vivo, mouse; conditions: 29 to 38 days p.i.
Protocol: At the time of sacrifice, bone marrow (BM) was harvested from both femurs (containing hematopoietically active marrow) of the animals. Femurs were excised from each mouse, and then the attached muscle was trimmed from the periosteal surface and the bone was opened at the distal end. BM was isolated using the cytocentrifuge method. In brief, the femur was placed in a 0.5 mL Eppendorf tube pre-punctured with a needle at the base of the tube to form an opening. The 0.5 mL tube was nested within a 1.5 mL Eppendorf tube, and both were centrifuged at 10,000 rpm for 15 s to form a BM pellet at the bottom of the 1.5 mL Eppendorf tube yet to retain the femur within the 0.5 mL tube. • Bone marrow smears and cytological assessment.
BM smears were prepared using the push-slide technique. In brief, one drop of BM was placed at one extremity of a glass slide and was then spread in an even film using a second glass slide (held at an angle) as a spreader. The spreader slide was slid forward the length of the slide to produce a smear. Slides were fixed in absolute methanol for 5 min and then air-dried. May-Grunwald–Giemsa staining was used for routine evaluation of BM cytomorphology. […] A qualitative and quantitative cytological evaluation of all the major lineages was performed by an experienced clinical pathologist on 300 to 500 cells. • Bone marrow apoptosis assessment.

[4] = Water intake and tolerability in mice; conditions: EJM xenograft nude mice; BSO 10 mM in drinking water; 30 MBq 177Lu-DOTATATE IV
Protocol: (§2) Mice experiments were approved by the animal ethics committee of Université Libre de Bruxelles (Comité d’Ethique du Bien-Etre Animal (CEBEA)) and performed according to European guidelines. Female athymic nude Foxn1^nu mice (Charles River) (age = 5 to 6 weeks) were subcutaneously injected in the right flank with 1 × 10^6 EJM cells suspended in 100 µL of PBS and matrigel (1:1; Cultrex™ Basement Membrane Extract, Type 3, R&D Systems). The tumours were allowed to grow for 4 weeks before initiating treatments. At a tumour size of approximately 0.5 cm^3, mice were randomized into 4 treatment groups of 10 mice: control, ^177Lu-DOTATATE, BSO and ^177Lu-DOTATATE + BSO. […] All mice were monitored three times a week for body weight and tumour growth using a calliper. Tumour volume (mm^3) was calculated using the formula π/6 × length × width × height. The relative tumour volume was represented and calculated as (tumour volume on measured day)/(tumour volume measured at baseline). […] Another group of mice receiving ^177Lu-DOTATATE alone or in combination with BSO was sacrificed 24, 72 and 168 h post-injection (p.i.) for ex vivo biodistribution studies and early glutathione quantification (4 mice per group per time point) (Figure 1).

[5] = tested on: kidneys; assay: H&E staining of kidneys; conditions: mouse, in vivo
Protocol: as §1

[6] = tested on: EJM xenograft mice; assay: Ex vivo biodistribution and time-activity curves; assay type: in vivo, mouse; conditions: 30 MBq 177Lu-DOTATATE IV ± 10 mM BSO via drinking water, single exponential fit of time-activity curve, n = 1 to 6 mice per group
Protocol: as §2

[7] = tested on: HT-29 colon adenocarcinoma cell line; conditions: 5 MBq 177Lu-DOTATATE for 4 h and/or BSO 10^−7 M from the day before irradiation until day 10, crystal violet day 10, % of non-treated, mean ± SEM, n = 12 from 3 independent experiments
[8] = tested on: EJM multiple myeloma cell line; conditions: 5 MBq 177Lu-DOTATATE for 4 h and/or BSO 10^−7 M from the day before irradiation until day 10, crystal violet day 10, % of non-treated, mean ± SEM, n = 12 from 3 independent experiments
[9] = tested on: MIA-PACA-2 pancreatic adenocarcinoma cell line; conditions: 5 MBq 177Lu-DOTATATE for 4 h and/or BSO 10^−7 M from the day before irradiation until day 10, crystal violet day 10, % of non-treated, mean ± SEM, n = 12 from 3 independent experiments
[10] = tested on: COLO-677 multiple myeloma cell line; conditions: 5 MBq 177Lu-DOTATATE for 4 h and/or BSO 10^−7 M from the day before irradiation until day 10, crystal violet day 10, % of non-treated, mean ± SEM, n = 12 from 3 independent experiments
[11] = tested on: total glutathione in MIA-PACA-2 cells; assay: Total glutathione quantification, MIA-PACA-2; assay type: cell-based, human; conditions: 10^−7 M BSO for 18 h, vs non-treated, mean ± SEM, n = 6 from 2 independent experiments
Protocol: (§3) Total glutathione was assessed in cell lines and mice tissues using the Quantification kit for oxidized and reduced glutathione (Sigma), according to the manufacturer’s instructions. Cells in culture were harvested, washed and then lysed with freeze-thaw cycles and subsequently mixed with 5% 5-sulfosalicylic acid. After centrifugation at 8000× g for 10 min, the supernatant was collected, and the 5-sulfosalicylic acid concentration was reduced to 0.5% with water for glutathione quantification. Tumour, liver and kidneys were harvested, snap-frozen in liquid nitrogen and stored at −70 °C until assayed for glutathione. Tissues were homogenized in 5% 5-sulfosalicylic acid in lysing matrix D tubes (MP Biomedicals) containing ceramic beads using a FastPrep-24 homogenizer (MP Biomedicals, Irvine, CA, USA) and centrifuged at 8000× g for 10 min. The supernatant was collected, and the 5-sulfosalicylic acid concentration was reduced to 0.5% with water for glutathione quantification. The buffer solution was added to samples (either from cell lines or tissues) (in triplicates) in a 96-well plate. […] Absorbance was read at 405 nm using a microplate reader (Thermo Labsystems Multiskan EX, ThermoFisher, Waltham, MA, USA). Total glutathione concentration was determined using a calibration curve.

[12] = tested on: MM162 melanoma cell line; conditions: 5 MBq 177Lu-DOTATATE for 4 h and/or BSO 10^−7 M from the day before irradiation until day 10, crystal violet day 10, % of non-treated, mean ± SEM, n = 12 from 3 independent experiments
[13] = tested on: total glutathione in EJM tumours; assay: Total glutathione in EJM tumours; assay type: in vivo, mouse; conditions: BSO 10 mM via drinking water (2 mmol/kg/day), summary in discussion
Protocol: as §2

[14] = cited from earlier work
Protocol: The optimal combination treatment schedule would still have to be determined, which would be the one allowing the use of the minimal effective dose of BSO, i.e., the dose necessary to achieve sufficient tumour GSH depletion to have an efficient tumour radiosensitization, without excessive healthy tissue toxicity. The rapid clearance of BSO (estimated half-life in plasma of less than 2 h) and the rapid rate of GSH turnover would allow one to closely control GSH levels with BSO and allow for a GSH depletion only during tumour irradiation with ^177Lu-DOTATATE, limiting the potential ...

[15] = tested on: HBL melanoma cell line; conditions: 5 MBq 177Lu-DOTATATE for 4 h and/or BSO 10^−7 M from the day before irradiation until day 10, crystal violet day 10, % of non-treated, mean ± SEM, n = 12 from 3 independent experiments
[16] = tested on: total glutathione in HT-29 cells; assay: Total glutathione quantification, HT-29; assay type: cell-based, human; conditions: 10^−7 M BSO for 18 h, vs non-treated, n = 6 from 2 independent experiments
Protocol: as §3

[17] = tested on: total glutathione in EJM cells; assay: Total glutathione quantification, EJM; assay type: cell-based, human; conditions: 10^−7 M BSO for 18 h, vs non-treated, mean ± SEM, n = 6 from 2 independent experiments
Protocol: as §3

[18] = tested on: total glutathione in COLO-677 cells; assay: Total glutathione quantification, COLO-677; assay type: cell-based, human; conditions: 10^−7 M BSO for 18 h, vs non-treated, n = 6 from 2 independent experiments
Protocol: as §3

[19] = parameters: method as in PMID 27092812, PMID 8270977, PMID 8558205, PMID 9392620; conditions: early-phase clinical studies on solid tumours; cited from earlier work
[20] = tested on: EJM multiple myeloma xenograft; assay: Tumour growth (calliper), EJM xenograft; assay type: in vivo, mouse; conditions: 30 MBq 177Lu-DOTATATE IV day 28 and/or 10 mM BSO drinking water 3 weeks, exponential growth fit, [95% CI], 8 to 10 mice per group
Protocol: as §2

[21] = tested on: total glutathione in HBL cells; assay: Total glutathione quantification, HBL; assay type: cell-based, human; conditions: 10^−7 M BSO for 18 h, vs non-treated, mean ± SEM, n = 6 from 2 independent experiments
Protocol: as §3

[22] = tested on: total glutathione in MM162 cells; assay: Total glutathione quantification, MM162; assay type: cell-based, human; conditions: 10^−7 M BSO for 18 h, vs non-treated, mean ± SEM, n = 6 from 2 independent experiments
Protocol: as §3

SMILES: C[C@@H](O)[C@H](NC(=O)[C@@H]1CSSC[C@H](NC(=O)[C@@H](Cc2ccccc2)NC(=O)CN2CCN(CC(=O)O)CCN(CC(=O)O)CCN(CC(=O)O)CC2)C(=O)N[C@@H](Cc2ccc(O)cc2)C(=O)N[C@H](Cc2c[nH]c3ccccc23)C(=O)N[C@@H](CCCCN)C(=O)N[C@@H]([C@@H](C)O)C(=O)N1)C(=O)O [^177Lu-DOTATATE, metal not drawn]
liver histology (H&E) [1]: No morphological changes were observed
BM apoptotic cells [2]: 33.0 ± 2.8%
relative proportion of BM lineages (erythroid, granulocytic, lymphoid), between treatment groups ([3]; BM smears, May-Grunwald–Giemsa, 3 to 4 mice per group): no significant differences
qualitative assessment of BM smears (morphology) ([3]; major BM lineages including megakaryocytes): did not show any morphological abnormalities
water intake [4]: 5.2 ± 0.5 mL/day/mouse
kidney histology (H&E) [5]: No morphological changes were observed
effective half-life in the kidneys [6]: 13.7 h
effective half-life in the liver [6]: 24 h

liver histology (H&E) [1]: No morphological changes were observed
kidney histology (H&E) [5]: No morphological changes were observed
SMILES: CCCCS(=N)(=O)CC[C@H](N)C(=O)O (stereo partly drawn) [BSO, L-Buthionine-(S,R)-Sulfoximine]
cell survival [7]: did not affect cell lines survival
cell survival [8]: did not affect cell lines survival
cell survival [9]: 87.6 ± 3.8%
cell survival [10]: did not affect cell lines survival
change in total glutathione levels [11]: −20.7 ± 3.5%
cell survival [12]: did not affect cell lines survival
tumour GSH depletion [13]: ~ 80%
estimated half-life in plasma [14]: less than 2 h
cell survival [15]: 81.2 ± 3.8%
change in total glutathione levels [16]: not affected
change in total glutathione levels [17]: −9.4 ± 2.2%
change in total glutathione levels [18]: not affected
water intake [4]: 5.6 ± 0.6 mL/day/mouse
adverse events caused by BSO alone [19]: only grade 1–2 nausea and vomiting
Tumour doubling time [20]: 7.5 days and 7.5 [6.3 – 9.1] days
change in total glutathione levels [21]: −21.5 ± 3.0%
change in total glutathione levels [22]: −11.1 ± 3.7%
